Laboratory results reported in patent publication US4808711A, “Cephalosporin derivatives” (Sankei Pharmaceutical Co., Ltd., priority 1985, dated 1989).
In brackets after ≈: the same amount, converted by molar mass. Read-outs that look alike come from different tables or passages of the source.

Assays:
Format in all cases: cell-based
[1] = tested on: E. coli NIHJ JC-2; assay: MIC, E. coli NIHJ JC-2
Description: (§1) The minimum inhibition concentrations (MIC) of the compounds obtained by the present invention were measured according to the standard method of Japanese Chemotherapy Association.

[2] = tested on: P. vulgaris ATCC6380; assay: MIC, P. vulgaris ATCC6380
Description: as §1

[3] = tested on: E. coli ATCC25922; assay: MIC, E. coli ATCC25922
Description: as §1

[4] = tested on: C. freundii IFO12681; assay: MIC, C. freundii IFO12681
Description: as §1

[5] = tested on: S. epidermidis ATCC14990; assay: MIC, S. epidermidis ATCC14990
Description: as §1

[6] = tested on: S. aureus Smith; assay: MIC, S. aureus Smith
Description: as §1

[7] = tested on: S. typhimurium ATCC13311; assay: MIC, S. typhimurium ATCC13311
Description: as §1

[8] = tested on: S. dysenteriae 4379-60; assay: MIC, S. dysenteriae 4379-60
Description: as §1

[9] = tested on: S. marcescens IFO12648; assay: MIC, S. marcescens IFO12648
Description: as §1

[10] = tested on: S. flexneri Y NCTC 9730; assay: MIC, S. flexneri Y NCTC 9730
Description: as §1

[11] = tested on: S. paratyphi B; assay: MIC, S. paratyphi B
Description: as §1

[12] = tested on: S. newport 563; assay: MIC, S. newport 563
Description: as §1

[13] = tested on: P. cepacia ATCC25416; assay: MIC, P. cepacia ATCC25416
Description: as §1

[14] = tested on: S. paratyphi C 33-76; assay: MIC, S. paratyphi C 33-76
Description: as §1

[15] = tested on: S. sonnei SH72-415; assay: MIC, S. sonnei SH72-415
Description: as §1

[16] = tested on: S. flexneri 2a CDC 4807-62; assay: MIC, S. flexneri 2a CDC 4807-62
Description: as §1

[17] = tested on: P. fluorescens ATCC13525; assay: MIC, P. fluorescens ATCC13525
Description: as §1

[18] = tested on: B. subtilis ATCC6633; assay: MIC, B. subtilis ATCC6633; settings: B. subtilis ATCC6633
Description: as §1

[19] = tested on: S. anatum 677-69; assay: MIC, S. anatum 677-69
Description: as §1

[20] = tested on: K. pneumoniae ATCC27736; assay: MIC, K. pneumoniae ATCC27736
Description: as §1

[21] = tested on: S. typhi 1099-77; assay: MIC, S. typhi 1099-77
Description: as §1

[22] = tested on: S. aureus 209P JC-1; assay: MIC, S. aureus 209P JC-1; settings: S. aureus 209P JC-1
Description: as §1

[23] = tested on: S. typhimurium IFO 12529; assay: MIC, S. typhimurium IFO 12529
Description: as §1

[24] = tested on: P. rettgeri ATCC14505; assay: MIC, P. rettgeri ATCC14505
Description: as §1

[25] = tested on: S. paratyphi A 144-12-93; assay: MIC, S. paratyphi A 144-12-93
Description: as §1

[26] = tested on: S. faecalis IFO3826; assay: MIC, S. faecalis IFO3826
Description: as §1

[27] = tested on: P. vulgaris ATCC6398; assay: MIC, P. vulgaris ATCC6398
Description: as §1

[28] = tested on: P. mirabilis IFO3849; assay: MIC, P. mirabilis IFO3849
Description: as §1

[29] = tested on: P. putida ATCC12633; assay: MIC, P. putida ATCC12633; settings: Pseudomonas putida
Description: as §1

[30] = tested on: P. maltophilia ATCC13637; assay: MIC, P. maltophilia ATCC13637; settings: Stenotrophomonas maltophilia
Description: as §1

[31] = tested on: S. aureus ATCC25923; assay: MIC, S. aureus ATCC25923; settings: Staphylococcus aureus; S. aureus ATCC25923; read-out: MIC
Description: as §1

[32] = tested on: P. aeruginosa ATCC9721; assay: MIC, P. aeruginosa ATCC9721; settings: Pseudomonas aeruginosa; P. aeruginosa ATCC9721; read-out: MIC
Description: as §1

[33] = tested on: E. cloacae ATCC13047; assay: MIC, E. cloacae ATCC13047; settings: Enterobacter cloacae
Description: as §1

[34] = tested on: S. aureus TASAKI; assay: MIC, S. aureus TASAKI; settings: Staphylococcus aureus; S. aureus TASAKI; standard method of Japanese Chemotherapy Association; read-out: MIC
Description: as §1

[35] = tested on: S. boyadii CDC 2064-59; assay: MIC, S. boyadii CDC 2064-59
Description: as §1

[36] = Escherichia coli, NIHJJC2, read-out: MIC
[37] = Proteus vulgaris, read-out: MIC
[38] = Escherichia coli, read-out: MIC
[39] = Citrobacter freundii, read-out: MIC
[40] = Staphylococcus epidermidis, read-out: MIC
[41] = Staphylococcus aureus, read-out: MIC
[42] = Salmonella enterica, read-out: MIC
[43] = Serratia marcescens, read-out: MIC
[44] = Shigella flexneri, NCTC9730, read-out: MIC
[45] = Burkholderia cepacia, read-out: MIC
[46] = Shigella sonnei, SH72415, read-out: MIC
[47] = Shigella flexneri, read-out: MIC
[48] = Bacillus subtilis, read-out: MIC
[49] = Salmonella enterica, 67769, read-out: MIC
[50] = Klebsiella pneumoniae, read-out: MIC
[51] = Providencia rettgeri, read-out: MIC
[52] = Enterococcus faecalis, read-out: MIC
[53] = Proteus mirabilis, read-out: MIC

cephazoline [CAZ]
MIC [1]: 0.78 µg/mL | MIC [2]: 0.2 µg/mL | MIC [3]: 0.39 µg/mL | MIC [4]: 0.39 µg/mL | MIC [5]: 6.25 µg/mL | MIC [6]: 6.25 µg/mL | MIC [7]: 0.39 µg/mL | MIC ([8]; S. dysenteriae 4379-60): 0.2 µg/mL | MIC [9]: 0.39 µg/mL | MIC [10]: 0.39 µg/mL | MIC ([11]; S. paratyphi B): 0.78 µg/mL | MIC [12]: 0.78 µg/mL | MIC [13]: 6.25 µg/mL | MIC ([14]; S. paratyphi C 33-76): 0.1 µg/mL | MIC [15]: 0.39 µg/mL | MIC [16]: 0.2 µg/mL | MIC [17]: 3.13 µg/mL | MIC [18]: 6.25 µg/mL | MIC [19]: 0.78 µg/mL | MIC [20]: 0.78 µg/mL | MIC ([21]; S. typhi 1099-77): 0.39 µg/mL | MIC [22]: 0.78 µg/mL | MIC [23]: 0.78 µg/mL | MIC [24]: 0.39 µg/mL | MIC ([25]; S. paratyphi A 144-12-93): 1.56 µg/mL | MIC [26]: > 100 µg/mL | MIC [27]: 0.1 µg/mL | MIC [28]: 0.2 µg/mL

Cn1nnnc1SCC1=C(C(=O)O)N2C(=O)C(NC(=O)C(=NOCC(=O)NNC(=O)c3ccc(O)c(O)c3)c3csc(N)n3)C2SC1 (stereo not shown) [Example 62]
MIC [1, 36]: 0.78 µg/mL (≈ 1.11 µM) | MIC [2, 37]: 0.39 µg/mL (≈ 0.553 µM) | MIC [3, 38]: 0.2 µg/mL (≈ 0.283 µM) | MIC [4, 39]: 0.39 µg/mL (≈ 0.553 µM) | MIC [29]: 1.56 µg/mL (≈ 2.21 µM) | MIC [5, 40]: 0.39 µg/mL (≈ 0.553 µM) | MIC [6, 41]: 3.13 µg/mL (≈ 4.44 µM) | MIC [30]: 1.56 µg/mL (≈ 2.21 µM) | MIC [7, 42]: 0.025 µg/mL (≈ 0.0354 µM) | MIC [31]: 0.39 µg/mL (≈ 0.553 µM) | MIC ([8]; Shigella dysenteriae, 437960): 0.025 µg/mL (≈ 0.0354 µM) | MIC [32]: 0.1 µg/mL (≈ 0.142 µM) | MIC [9, 43]: 0.39 µg/mL (≈ 0.553 µM) | MIC [10, 44]: 0.78 µg/mL (≈ 1.11 µM) | MIC ([11]; Salmonella enterica, PARATYPHI): 0.012 µg/mL (≈ 0.017 µM) | MIC [33]: 3.13 µg/mL (≈ 4.44 µM) | MIC [12, 42]: 0.05 µg/mL (≈ 0.0708 µM) | MIC [13, 45]: 0.78 µg/mL (≈ 1.11 µM) | MIC ([14]; Salmonella enterica, PARATYPHI): 0.012 µg/mL (≈ 0.017 µM) | MIC [15, 46]: 0.05 µg/mL (≈ 0.0708 µM) | MIC [16, 47]: 0.1 µg/mL (≈ 0.142 µM) | MIC ([17]; Pseudomonas fluorescens, read-out: MIC): 12.5 µg/mL (≈ 17.7 µM) | MIC [18, 48]: 0.39 µg/mL (≈ 0.553 µM) | MIC [19, 49]: 0.025 µg/mL (≈ 0.0354 µM) | MIC [34]: 1.56 µg/mL (≈ 2.21 µM) | MIC [20, 50]: 0.012 µg/mL (≈ 0.017 µM) | MIC [35]: 0.39 µg/mL (≈ 0.553 µM) | MIC ([21]; Salmonella enterica, TYPHI): ≤ 0.006 µg/mL | MIC [22, 41]: 0.39 µg/mL (≈ 0.553 µM) | MIC [23, 42]: 0.05 µg/mL (≈ 0.0708 µM) | MIC [24, 51]: 1.56 µg/mL (≈ 2.21 µM) | MIC ([25]; Salmonella enterica, PARATYPHI): 0.025 µg/mL (≈ 0.0354 µM) | MIC [26, 52]: > 100 µg/mL | MIC [27, 37]: 0.05 µg/mL (≈ 0.0708 µM) | MIC [28, 53]: 0.39 µg/mL (≈ 0.553 µM)

CN(C)CCn1nnnc1SCC1=C(C(=O)O)N2C(=O)[C@@H](NC(=O)Cc3csc(N)n3)[C@H]2SC1 [CTM, cephothiam]
MIC [1, 36]: 0.2 µg/mL (≈ 0.38 µM) | MIC [2, 37]: > 100 µg/mL | MIC [3, 38]: 0.2 µg/mL (≈ 0.38 µM) | MIC [4, 39]: 3.13 µg/mL (≈ 5.95 µM) | MIC [29]: > 100 µg/mL | MIC [5, 40]: 0.39 µg/mL (≈ 0.742 µM) | MIC [6, 41]: 0.39 µg/mL (≈ 0.742 µM) | MIC [30]: > 100 µg/mL | MIC [7, 42]: 0.1 µg/mL (≈ 0.19 µM) | MIC [31]: 0.39 µg/mL (≈ 0.742 µM) | MIC ([8]; Shigella dysenteriae, 437960): 0.05 µg/mL (≈ 0.0951 µM) | MIC [32]: > 100 µg/mL | MIC [9, 43]: 6.25 µg/mL (≈ 11.9 µM) | MIC [10, 44]: 0.78 µg/mL (≈ 1.48 µM) | MIC ([11]; Salmonella enterica, PARATYPHI): 0.2 µg/mL (≈ 0.38 µM) | MIC [33]: 50 µg/mL (≈ 95.1 µM) | MIC [12, 42]: 0.39 µg/mL (≈ 0.742 µM) | MIC [13, 45]: 0.39 µg/mL (≈ 0.742 µM) | MIC ([14]; Salmonella enterica, PARATYPHI): 0.05 µg/mL (≈ 0.0951 µM) | MIC [15, 46]: 0.2 µg/mL (≈ 0.38 µM) | MIC [16, 47]: 0.1 µg/mL (≈ 0.19 µM) | MIC [18, 48]: 0.39 µg/mL (≈ 0.742 µM) | MIC [19, 49]: 0.2 µg/mL (≈ 0.38 µM) | MIC [34]: 0.39 µg/mL (≈ 0.742 µM) | MIC [20, 50]: 0.1 µg/mL (≈ 0.19 µM) | MIC [35]: 0.39 µg/mL (≈ 0.742 µM) | MIC ([21]; Salmonella enterica, TYPHI): 0.1 µg/mL (≈ 0.19 µM) | MIC [22, 41]: 0.2 µg/mL (≈ 0.38 µM) | MIC [23, 42]: 0.2 µg/mL (≈ 0.38 µM) | MIC [24, 51]: 3.13 µg/mL (≈ 5.95 µM) | MIC ([25]; Salmonella enterica, PARATYPHI): 0.39 µg/mL (≈ 0.742 µM) | MIC [26, 52]: > 100 µg/mL | MIC [27, 37]: > 100 µg/mL | MIC [28, 53]: 0.78 µg/mL (≈ 1.48 µM)
